Tests used:
oxidation level of DNA = assay: Oxidation level of DNA in hippocampus sections (anti-8-hydroxy-2'-deoxyguanosine/8-hydroxyguanosine immunocytochemistry); type: in vivo; conditions: rat brain hippocampus sections, fed 7 weeks; mean of 5 animals; standard deviation about 15%
From the text: The rats in the experimental group (5 each) were fed either 0.5% (wt/vol) acetyl-L-camitine in water, 1.0% (wt/vol) polyphenol in water; 0.2% (wt/wt) lipoic acid in AIN93M diet, or a combination of the above. Rats were acclimated for one week before experiments. Rats were fed for the above treatment for 7 weeks before tests. Control rats were fed with water and AIN93M diet only. For assaying DNA oxidation, rats from each treatment group (5 animals per group) was anesthetized with ether and perfused with paraformaldehyde. The brain was removed and postfixed for paraffin sections. Sections of hippocampus were incubated with anti-8-hydroxy-2′-deoxyguanosine/8-hydroxyguanosine and visualized by using standard immunocytochemical methods. Quantification of oxidation was done as described in Liu, J K, et al., (Proc. Natl. Acad. Sci USA, 99:1356-2361, 2002). Values are a mean of 5 animals. The standard deviation is about 15%.

Fischer 344 male rats = assay: Morris water maze spatial memory test in rats; type: in vivo, rat; conditions: fed 7 weeks, 4 consecutive days, 4 trials per day, averaged, standard deviation around 20%
From the text: FIG. 1 of 2 depicts measurements of spatial memory in (Fischer 344 male rats) subjected to a water maze test, after treatment with carnitine, lipoic acid, and/or polyphenol. […] The Morris maze task tests spatial memory by requiring rats to fmd a submerged platform in a pool of water using external visual cues (Morris, R. 1984; J. Neurosci. Methods, 11:47-60; Schenk, F. and Morris, R, Exp. Brain Res. 58:11-28, 1985). The rats in the experimental group (5 each) were fed either 0.5% (wt/vol) acetyl-L-carnitine in water, 1.0% (wt/vol) polyphenol in water; 0.2% (wt/wt) lipoic acid in AIN93M diet, or a combination of the above. Rats were acclimated for one week before experiments. Rats were fed for the above treatment for 7 weeks before tests. Trials (4 consecutive days, 4 trials per day) were conducted and the results averaged. The standard deviation is around 20%. Control rats were fed with water and AIN93M diet only.

O=C(O)CCCC[C@@H]1CCSS1 (racemic) [lipoic acid]
DNA oxidation level compared with rats having no treatment (oxidation level of DNA): ~82% | mastery of the water maze, faster over no treatment (Fischer 344 male rats): ~79%
